From patent US11612606B2, “8-aminoisoquinoline compounds and uses thereof” (priority 2018, dated 2023)
Read-outs that look alike come from different tables or passages of the source.

Experiments:
[1] = biological target: HPK full length, T165E S171E (Homo sapiens (Human), UniProt Q92918, S171E/T165E); assay: HPK1-FL HTRF enzymatic assay ("HTRF"); assay type: biochemical; details: ATP 1 mM
Summary of the method: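 HTRF detection of phosphorylated biotin-SLP-76 used Eu-anti-pSLP76 antibody and SA-XL665, read after 60 min. The kinase reaction ran 60 min at […], following a 30-min compound preincubation with the full-length enzyme.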

[2] = system: primary human pan T cells; assay: Human T-cell IL2 induction assay; assay type: cell-based
Method: Assay Principle: Anti-CD3 and anti-CD28 activates TCR signaling in primary human pan T cells leading to IL-2 promoter induction. Secreted IL-2 in cell culture supernatant is detected by electrochemiluminescence using a capture antibody against IL-2 and an anti-IL-2 antibody labeled with SULFO-tag. Also see www.mesoscale.com for additional electrochemiluminescence technology information.
Assay Procedure: Incubate primary human pan T cells with varying concentrations of test compounds for 30 minutes in a humidified incubator at 37° C. and 5% CO2. Transfer cells to a plate pre-coated with a fixed concentration of anti-human CD3 (determined separately for each donor lot) and add soluble anti-human CD28 (final concentration=1 μg/ml). Stimulate cells in a humidified incubator at 37° C. and 5% CO2 for 4 hours. Transfer 25 μl of supernatant to a MSD single spot plate pre-coated with an anti-human IL-2 antibody. Incubate MSD plate overnight at 4° C. with gentle shaking. Wash MSD plate 4× with wash buffer. Add SULFO-tagged detection antibody at a 1:50 dilution and incubate at room temperature shaking for 2 hours. Wash MSD plate 4× with wash buffer and add 150 μl 2×MSD read buffer. Read on an MSD instrument. Normalize data to stimulated/untreated controls to calculate % activity at each concentration of compound.
Instrumentation: • Biomek FX for liquid handling (Beckman Coulter) • MSD SECTOR S 600 (Meso Scale Discovery)
Exemplary compounds of Formula (I) were tested in the human T-cell IL-2 induction assays.

[3] = system: phosphorylation of SLP-76 (S376) by HPK-1 in human Jurkat cells; assay: pSLP76 assay (sandwich ELISA, anti-CD3 stimulated Jurkat cells); assay type: cell-based; details: Homo sapiens, read-out: pSLP76 IC50
Method: Phospho-SLP76 (S376) is detected by sandwich ELISA using an anti-pSLP76(S376) capture antibody and a biotinylated anti-SLP76 detection antibody.
Incubate Jurkat cells with varying concentrations of test compounds for 30 minutes in a humidified incubator at 37° C. and 5% CO2. Add anti-CD3 DynaBeads at a 4:1 bead:cell ratio. Stimulate cells in a humidified incubator at 37° C. and 5% CO2 for 10 minutes. Add cold lysis buffer and incubate on a shaker at 4° C. for 30 minutes. Transfer cell lysates to a pre-blocked ELISA plate coated with capture antibody. Incubate at room temperature shaking for 2 hours. Wash ELISA plate 5× with wash buffer and add 25 μl of biotinylated detection antibody at a final concentration of 0.5 μg/ml. Incubate at room temperature shaking for 1 hour. Wash ELISA plate 5× with wash buffer and add 25 μl of streptavidin enzyme conjugate at a final dilution of 1:8000. Incubate at room temperature shaking for 20 minutes. Wash ELISA plate 5× with wash buffer and add 25 μl of TMB substrate solution. Incubate at room temperature in the dark shaking for 20 minutes. Add 25 μl of STOP solution and read on SoftMax Pro for absorbance at 450 nm.
Exemplary compounds of Formula (I) were tested in pSLP76 assays.

[4] = Permeability assay in gMDCKI cells; assay type: in vitro ADME, canine; details: dog, MDCK, apical-to-basolateral, 2-hour incubation, read-out: MDCK AB Papp
Method: Cell permeability of compounds of interest was assessed in the gMDCKI cell line, which is a modified MDCKI (Madin-Darby canine kidney) originally acquired from American Type Culture Collection (Manassa, Va.) and generated at Genentech. […] Test article was tested at 10 μM in the apical-to-basolateral (A-B) and basolateral-to-apical (B-A) directions. Test compound was dissolved in transport buffer consisting of Hank's balanced salt solution and […] (Invitrogen Corporation, Grand Island, N.Y.). Transepithelial electrical resistance (TEER) and lucifer yellow (LY) permeability were used to monitor monolayer integrity at the beginning and the end of the experiments, respectively. Test articles were analyzed by LC-MS/MS.
The efflux ratio (ER) is calculated as (Papp, B−A/Papp, A−B).
Cell permeability were assessed for exemplary compounds of Formula (I).

[5] = Hepatocyte stability assay; assay type: in vitro ADME; details: cryopreserved human hepatocytes (10 donor pool, suspension), scaled hepatic clearance, read-out: HHep Clearance
Method: Metabolic stability of compounds are assessed using a hepatocyte stability assay. Cryopreserved human hepatocytes from a 10 donor pool are quickly thawed at 37° C., suspended in prewarmed In VitroGRO™ HT Medium, and then centrifuged at 100×g at room temperature for 10 min. The supernatants are discarded, and cells are resuspended in 5 mL Dulbecco's Modified Eagle Medium (DMEM) medium. Cell viability in suspension is counted on a Hepatometer® Vision (Lonza, N.C.), and viable cells are then adjusted to […] in DMEM. Compounds are first diluted to 2 μM with DMEM medium, and then aliquots of 125 μL of drug-containing medium are transferred to 96-well non-coated plates. Incubation is initiated by the addition of 125 μL of hepatocyte suspension to yield a total incubation volume of 250 μL. Final concentration of each compound is 1 μM, and final cell density is 0.5×10^6 cells/mL. Incubations are conducted in a humidified incubator at 37° C. Aliquots of 50 μL incubation medium are taken out at different time intervals (0, 60, 120 and 180 min), and immediately mixed with 100 μL of ice-cold acetonitrile containing 50 nM propranolol (internal standard). Samples are then centrifuged at 10,000×g for 10 min, and 80 μL of supernatant is taken out and diluted with 160 μL of water prior to LC/MS-MS analysis.
Human hepatocyte stability was assessed for exemplary compounds of Formula (I) according to the above procedures.

[6] = Pharmacokinetic study in rat; assay type: in vivo, Sprague Dawley rat; details: male, Sprague Dawley
Method: Pharmacokinetic Study in Rat: Male Sprague Dawley rats obtained from Lingchang/Vital River Laboratory Animal Technology Co., Ltd., (Shanghai/Beijing, P.R. China) with body weight ranging between 200 g to 300 g were use in the PK studies. Group of 3 rats were given a 1 mg/kg intravenous bolus (IV) dose of the test article in solution formulation, and another group of 3 rats were given a 2 or 5 mg/kg oral (PO) dose of test article as a 0.5% methylcellulose with 0.2% Tween 80 (MCT) suspension or as a solution. Blood samples (250 μL, per time point) were collected serially via the catheter in femoral artery at 0.033, 0.083, 0.25, 0.5, 1, 2, 4, 6, and 8 hours after IV or PO administration from each of the rat. Blood samples were collected into pre-chilled tubes containing Potassium (K2) EDTA and centrifuged at 3,200 g for 10 minutes at 2 to 8° C. within 1 hour of collection to harvest plasma. Plasma samples were stored at −70° C. until LC/MS/MS analysis. Concentration in each plasma sample was determined by a non-validated LC/MS/MS. Data is acquired using multiple reaction monitoring (MRM) with specific transitions monitored for each compound.
Following PO administration, percent bioavailability (% F) was determined for each animal by dividing the dose normalized area under the plasma concentration-time curve, extrapolated to infinity (AUCinf) obtained following each PO dose by the mean dose normalized AUCinf of the animals dosed by IV injection. All PK parameters are presented as mean±standard deviation (SD).
Pharmacokinetic studies were conducted in rat for exemplary compounds of Formula (I).

[7] = Jurkat cells, anti-CD3 stimulation
[8] = plasma, PO 2 mg/kg, MCT, Suspension

Sequence of HPK full length, T165E S171E (Q92918 whole entry T165E/S171E, looked up): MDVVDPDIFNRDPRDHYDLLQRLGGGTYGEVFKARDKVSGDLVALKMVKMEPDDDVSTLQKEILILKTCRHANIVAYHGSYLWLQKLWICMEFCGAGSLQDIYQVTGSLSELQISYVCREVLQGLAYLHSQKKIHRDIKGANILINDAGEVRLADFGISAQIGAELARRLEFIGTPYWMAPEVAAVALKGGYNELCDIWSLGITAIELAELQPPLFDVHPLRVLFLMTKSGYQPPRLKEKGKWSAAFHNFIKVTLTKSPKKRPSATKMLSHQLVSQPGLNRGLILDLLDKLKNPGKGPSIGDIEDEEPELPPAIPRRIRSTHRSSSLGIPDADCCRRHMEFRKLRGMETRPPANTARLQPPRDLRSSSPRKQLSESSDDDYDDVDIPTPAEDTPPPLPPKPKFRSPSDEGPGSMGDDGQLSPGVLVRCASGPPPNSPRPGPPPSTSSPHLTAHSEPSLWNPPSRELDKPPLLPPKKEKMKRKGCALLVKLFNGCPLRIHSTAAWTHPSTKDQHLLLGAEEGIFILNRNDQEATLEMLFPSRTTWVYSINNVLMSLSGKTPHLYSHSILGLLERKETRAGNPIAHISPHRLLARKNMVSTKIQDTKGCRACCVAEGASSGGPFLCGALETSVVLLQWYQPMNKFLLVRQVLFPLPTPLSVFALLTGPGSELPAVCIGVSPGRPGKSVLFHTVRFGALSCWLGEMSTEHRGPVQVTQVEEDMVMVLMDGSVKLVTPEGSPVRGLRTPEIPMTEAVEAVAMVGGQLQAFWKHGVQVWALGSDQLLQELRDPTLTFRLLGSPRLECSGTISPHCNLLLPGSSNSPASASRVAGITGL

Row | Compound | Ki ([1]; read-out: HPK1 Ki) | % IL-2 increase relative to untreated cells ([2]; assayed concentration 2.778 μM) | IC50 [3, 7] | Papp at 2 h, 10 μM [4] | CLhep predicted at 1 μM [5] | IC50 ([3]; Jurkat) | also measured
1 | Cc1c(-c2cc3cc(NC(=O)O[C@H]4COC[C@@H]4C)ncc3c(N)c2F)cnc2c1NCCO2 (single isomer, unassigned) [Compound 441b] | < 0.013 nM | 1158% | 36 nM | 15 ×10⁻⁶ cm/s | 6.9 mL/min/kg | – | bioavailability ([6]; plasma, PO 2 mg/kg, 10/90 DMSO/MCT, Solution): 30%
2 | Cc1c(-c2cc3cc(NC(=O)O[C@@H]4COC[C@@H]4F)ncc3c(N)c2F)cnc2c1NCCO2 (single isomer, unassigned) [Compound 477d] | – | – | 66 nM | 16 ×10⁻⁶ cm/s | 5.7 mL/min/kg | – | Ki ([1]; HPK1 Ki): 0.02 nM; % IL-2 increase relative to untreated cells ([2]; assayed concentration 8.33 μM): 1745%; bioavailability ([6]; plasma, PO 2 mg/kg, 10% DMSO/60% PEG400/30% Water, Solution): 43%
3 | Cc1c(-c2cc3cc(NC(=O)O[C@@H]4CCC[C@H]4C#N)ncc3c(N)c2F)cnc2c1NCCO2 (single isomer, unassigned) [Compound 482a] | < 0.013 nM | 737% | 38 nM | 15 ×10⁻⁶ cm/s | 11 mL/min/kg | – | bioavailability ([6]; plasma, PO 5 mg/kg, MCT, pH = 2.5, Suspension): 41%
4 | Cc1c(-c2cc3cc(NC(=O)O[C@H]4CCO[C@H]4C)ncc3c(N)c2F)cnc2c1NCCO2 (single isomer, unassigned) [Compound 510c] | < 0.013 nM | 700% | – | 20 ×10⁻⁶ cm/s | 8.7 mL/min/kg | 62 nM | bioavailability [6, 8]: 28%
5 | CO[C@H]1COC[C@@H]1OC(=O)Nc1cc2cc(-c3cnc4c(c3C)NCCO4)c(F)c(N)c2cn1 (single isomer, unassigned) [Compound 546a] | < 0.013 nM | – | 62 nM | 10 ×10⁻⁶ cm/s | 6.5 mL/min/kg | – | % IL-2 increase relative to untreated cells ([2]; assayed concentration 8.33 μM): 914%; bioavailability ([6]; plasma, PO 5 mg/kg, 10% DMSO/35% PEG400/55% Water, Solution): 22%
6 | CCc1c(-c2cc3cc(NC(=O)O[C@@H]4COC[C@H]4C)ncc3c(N)c2F)cnc2c1NCCO2.Cl (single isomer, unassigned) [Compound 555b, (3S,4R)-4-Methyltetrahydrofuran-3-yl (8-amino-6-(8-ethyl-2,3-dihydro-1H-pyrido[2,3-b][1,4]oxazin-7-yl)-7-fluoroisoquinolin-3-yl)carbamate hydrochloride] | – | – | – | 15 ×10⁻⁶ cm/s | – | – | bioavailability ([6]; in vivo, PO 2 mg/kg, 10% DMSO/60% PEG400/30% Water, Solution): 34%
7 | Cc1c(-c2cc3cc(NC(=O)OC4CCOCC4)ncc3c(N)c2F)cnc2c1NCCO2 [Compound 401, Tetrahydropyran-4-yl N-[8-amino-7-fluoro-6-(8-methyl-2,3-dihydro-1H-pyrido[2,3-b][1,4]oxazin-7-yl)-3-isoquinolyl]carbamate] | 0.019 nM | – | – | 18 ×10⁻⁶ cm/s | 9.2 mL/min/kg | 97 nM | bioavailability ([6]; plasma, PO 5 mg/kg, MCT, Suspension): 16%
8 | Cc1c(-c2cc3cc(NC(=O)O[C@@H]4CCOC4)ncc3c(N)c2F)cnc2c1NCCO2 [Compound 403a, (R)-Tetrahydrofuran-3-yl (8-amino-7-fluoro-6-(8-methyl-2,3-dihydro-1H-pyrido[2,3-b][1,4]oxazin-7-yl)isoquinolin-3-yl)carbamate] | – | – | 48 nM | 10 ×10⁻⁶ cm/s | 7.7 mL/min/kg | – | Ki ([1]; HPK1 Ki): < 0.013 nM; bioavailability ([6]; plasma, PO 5 mg/kg, 10/90 DMSO/MCT, Suspension): 4%
9 | CNc1cncc(-c2cc3cc(NC(=O)OC4CC(C)(O)C4)ncc3c(N)c2F)c1C (centres unmarked) [Compound 527, 3-Hydroxy-3-methylcyclobutyl(8-amino-7-fluoro-6-(4-methyl-5-(methylamino)pyridin-3-yl)isoquinolin-3-yl)carbamate] | – | 738% | – | 13 ×10⁻⁶ cm/s | 11 mL/min/kg | 64 nM | bioavailability [6, 8]: 12%
